Numbered stars: 1 amine (or outer) side, 2 acyl side, 3 side chain; on linkers, the order of the positions; unused ones are H or OH. Square brackets hold non-standard residues; d marks the D form. Side chains are listed from the residue outwards. Peptide text beside a SMILES is read from it. * marks the point of attachment. Phe(4-CH2SO3H) = N[C@@H](Cc1ccc(CS(=O)(=O)O)cc1)C(=O)O; Ala(indol-2-yl) = N[C@@H](Cc1cc2ccccc2[nH]1)C(=O)O; sY = N[C@@H](Cc1ccc(OS(=O)(=O)O)cc1)C(=O)O; C18 diacid = O=C(O)CCCCCCCCCCCCCCCCC(=O)*; C16 diacid = O=C(O)CCCCCCCCCCCCCCC(=O)*; γGlu = O=C(O)[C@H](CCC(=O)[*:2])N[*:1]; Glutaryl = O=C(CCCC(=O)[*:2])[*:1]; NMeF = CN[C@@H](Cc1ccccc1)C(=O)O; NMeD = CN[C@@H](CC(=O)O)C(=O)O; dNMeD = CN[C@H](CC(=O)O)C(=O)O; Nle = CCCC[C@H](N)C(=O)O; X1 = O=C(Cc1ccc(O)cc1)*; Dap = NC[C@H](N)C(=O)O; AEEA = NCCOCCOCC(=O)O
What was measured:
[1] = target: T1, Cholecystokinin receptor type A (Homo sapiens, UniProt P32238); test: Agonist activity at human CCK1R expressed in human 1321N1 cells assessed as IP1 accumulation after 1 hr by HTRF assay; type: functional, cell-based
T1 sequence (P32238 whole entry): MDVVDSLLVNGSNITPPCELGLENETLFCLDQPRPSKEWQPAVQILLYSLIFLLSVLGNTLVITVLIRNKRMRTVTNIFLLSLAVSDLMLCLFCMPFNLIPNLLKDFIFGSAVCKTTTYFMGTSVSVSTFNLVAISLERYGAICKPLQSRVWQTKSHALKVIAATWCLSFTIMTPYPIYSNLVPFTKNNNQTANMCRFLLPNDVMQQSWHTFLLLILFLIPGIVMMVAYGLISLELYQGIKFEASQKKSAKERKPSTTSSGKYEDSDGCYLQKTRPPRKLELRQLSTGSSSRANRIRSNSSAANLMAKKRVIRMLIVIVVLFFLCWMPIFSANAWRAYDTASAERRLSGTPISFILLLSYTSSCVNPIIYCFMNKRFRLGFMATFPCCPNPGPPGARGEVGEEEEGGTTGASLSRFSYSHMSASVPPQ

[2] = target: T1, Cholecystokinin receptor type A; test: Displacement of [125I]-CCK-8 from human CCK1R expressed in human 1321N1 cell membranes after 2 hrs by SPA assay
[3] = target: T2, Gastrin/cholecystokinin type B receptor (Homo sapiens, UniProt P32239); test: Agonist activity at human CCK2R expressed in human 1321N1 cells assessed as IP1 accumulation after 1 hr by HTRF assay; type: functional, cell-based
T2 sequence (P32239 whole entry): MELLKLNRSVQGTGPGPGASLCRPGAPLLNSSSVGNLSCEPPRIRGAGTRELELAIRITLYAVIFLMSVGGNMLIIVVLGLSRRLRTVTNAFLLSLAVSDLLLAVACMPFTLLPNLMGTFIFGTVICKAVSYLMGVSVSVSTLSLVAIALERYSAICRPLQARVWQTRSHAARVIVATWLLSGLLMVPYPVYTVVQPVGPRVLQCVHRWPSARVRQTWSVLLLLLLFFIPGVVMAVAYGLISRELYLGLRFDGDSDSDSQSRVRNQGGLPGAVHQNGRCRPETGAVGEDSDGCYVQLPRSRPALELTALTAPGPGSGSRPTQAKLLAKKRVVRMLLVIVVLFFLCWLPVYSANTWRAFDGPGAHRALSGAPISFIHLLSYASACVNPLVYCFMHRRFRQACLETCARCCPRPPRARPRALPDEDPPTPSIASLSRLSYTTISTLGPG

[4] = target: T2, Gastrin/cholecystokinin type B receptor; test: Displacement of [125I]-CCK-8 from human CCK2R expressed in human 1321N1 cell membranes after 2 hrs by SPA assay

| EC50 [1] [nM] | IC50 [2] [nM] | pEC50 [3] | pIC50 [4] | pEC50 [1] | pIC50 [2] | EC50 [3] [nM] | IC50 [4] [nM] | SMILES |
| --- | --- | --- | --- | --- | --- | --- | --- | --- |
| 0.107 | 0.339 |  |  |  |  | 5.01 | 759 | CCCC[C@H](NC(=O)[C@H](Cc1ccc(O)cc1)NC(=O)[C@H](CC(=O)O)NC(=O)COCCOCCNC(=O)COCCOCCNC(=O)CC[C@H](NC(=O)CCCCCCCCCCCCCCCCC(=O)O)C(=O)O)C(=O)NCC(=O)N[C@@H](Cc1c[nH]c2ccccc12)C(=O)N[C@@H](CCCCNC(=O)Nc1ccccc1C)C(=O)N[C@@H](CC(=O)O)C(=O)N(C)[C@@H](Cc1ccccc1)C(N)=O |
|  |  |  |  |  |  | 1.55 | 245 | CCCC[C@H](NC(=O)[C@H](Cc1c[nH]c2ccccc12)NC(=O)CNC(=O)[C@H](CC(C)C)NC(=O)[C@H](Cc1ccc(OS(=O)(=O)O)cc1)NC(=O)[C@H](CC(=O)O)NC(=O)COCCOCCNC(=O)COCCOCCNC(=O)CC[C@H](NC(=O)CCCCCCCCCCCCCCCCC(=O)O)C(=O)O)C(=O)N(C)[C@@H](CC(=O)O)C(=O)N[C@@H](Cc1ccccc1)C(N)=O |
|  |  |  |  |  |  | 132 | 5620 | CCCC[C@H](NC(=O)[C@H](Cc1c[nH]c2ccccc12)NC(=O)CNC(=O)[C@H](CC(C)C)NC(=O)[C@H](Cc1ccc(OS(=O)(=O)O)cc1)NC(=O)[C@H](CC(=O)O)NC(=O)COCCOCCNC(=O)COCCOCCNC(=O)CC[C@H](NC(=O)CCCCCCCCCCCCCCCCC(=O)O)C(=O)O)C(=O)N(C)[C@H](CC(=O)O)C(=O)N[C@@H](Cc1ccccc1)C(N)=O |
| 0.115 | 0.0871 |  |  |  |  | 0.457 | 0.288 | CCCC[C@H](NC(=O)[C@H](Cc1c[nH]c2ccccc12)NC(=O)CNC(=O)[C@H](CC(C)C)NC(=O)[C@H](Cc1ccc(OS(=O)(=O)O)cc1)NC(=O)[C@H](CC(=O)O)NC(=O)COCCOCCNC(=O)COCCOCCNC(=O)CC[C@H](NC(=O)CCCCCCCCCCCCCCCCC(=O)O)C(=O)O)C(=O)N[C@@H](CC(=O)O)C(=O)N(C)[C@@H](Cc1ccccc1)C(N)=O |
| 0.129 | 0.275 |  |  |  |  | 0.501 | 0.166 | CCCC[C@H](NC(=O)[C@H](Cc1c[nH]c2ccccc12)NC(=O)CNC(=O)[C@H](CC(C)C)NC(=O)[C@H](Cc1ccc(OS(=O)(=O)O)cc1)NC(=O)[C@H](CC(=O)O)NC(=O)COCCOCCNC(=O)COCCOCCNC(=O)CC[C@H](NC(=O)CCCCCCCCCCCCCCCCC(=O)O)C(=O)O)C(=O)N[C@@H](CC(=O)O)C(=O)N[C@@H](Cc1ccccc1)C(N)=O |
| 0.363 | 0.0741 |  |  |  |  | 123 |  | CCCC[C@H](NC(=O)[C@H](Cc1c[nH]c2ccccc12)NC(=O)CNC(=O)[C@H](CC(C)C)NC(=O)[C@H](Cc1ccc(OS(=O)(=O)O)cc1)NC(=O)[C@H](CC(=O)O)NC(=O)COCCOCCNC(=O)COCCOCCNC(=O)CC[C@H](NC(=O)CCCCCCCCCCCCCCCCC(=O)O)C(=O)O)C(=O)N(C)[C@H](CC(=O)O)C(=O)N(C)[C@@H](Cc1ccccc1)C(N)=O |
|  |  | 6.5 | 6.24 | 9.61 | 10.19 |  |  | CCCC[C@H](NC(=O)[C@H](Cc1cc2ccccc2[nH]1)NC(=O)CNC(=O)[C@H](CCCCNC(=O)COCCOCCNC(=O)COCCOCCNC(=O)CC[C@H](NC(=O)CCCCCCCCCCCCCCCCC(=O)O)C(=O)O)NC(=O)[C@H](Cc1ccc(OS(=O)(=O)O)cc1)NC(=O)[C@H](CC(=O)O)NC(C)=O)C(=O)N(C)[C@@H](CC(=O)O)C(=O)N(C)[C@@H](Cc1ccccc1)C(N)=O (Ac-D[sY]K([AEEA-AEEA-γGlu-C18 diacid])G[Ala(indol-2-yl)][Nle][NMeD][NMeF]-NH2) |
| 0.191 |  |  |  |  |  |  |  | CCCC[C@H](NC(=O)[C@H](Cc1c[nH]c2ccccc12)NC(=O)CNC(=O)[C@H](CC(C)C)NC(=O)[C@H](Cc1ccc(CS(=O)(=O)O)cc1)NC(=O)[C@H](CC(=O)O)NC(=O)COCCOCCNC(=O)COCCOCCNC(=O)CC[C@H](NC(=O)CCCCCCCCCCCCCCC(=O)O)C(=O)O)C(=O)N(C)[C@H](CC(=O)O)C(=O)N(C)[C@@H](Cc1ccccc1)C(N)=O ({C16 diacid-γGlu-AEEA-AEEA}-D[Phe(4-CH2SO3H)]LGW[Nle][dNMeD][NMeF]-NH2) |
| 0.166 | 0.617 |  |  |  |  |  |  | CC(C)C[C@H](NC(=O)[C@H](Cc1ccc(OS(=O)(=O)O)cc1)NC(=O)[C@H](CC(=O)O)NC(=O)COCCOCCNC(=O)COCCOCCNC(=O)CC[C@H](NC(=O)CCCCCCCCCCCCCCCCC(=O)O)C(=O)O)C(=O)NCC(=O)N[C@@H](Cc1c[nH]c2ccccc12)C(=O)N[C@@H](C)C(=O)N(C)[C@H](CC(=O)O)C(=O)N(C)[C@@H](Cc1ccccc1)C(N)=O ({C18 diacid-γGlu-AEEA-AEEA}-D[sY]LGWA[dNMeD][NMeF]-NH2) |

The remaining lines, values behind:

| SMILES | EC50 [1] [nM] | IC50 [2] [nM] | pEC50 [3] | pIC50 [4] | pEC50 [1] | pIC50 [2] | EC50 [3] [nM] | IC50 [4] [nM] |
| --- | --- | --- | --- | --- | --- | --- | --- | --- |
| CSCC[C@H](NC(=O)[C@H](Cc1c[nH]c2ccccc12)NC(=O)CNC(=O)[C@H](Cc1ccc(O)cc1)NC(=O)[C@H](C)NC(=O)[C@H](CCC(=O)O)NC(=O)[C@H](CCC(=O)O)NC(=O)[C@H](CCC(=O)O)NC(=O)[C@H](CCC(=O)O)NC(=O)[C@H](CCC(=O)O)NC(=O)[C@H](CC(C)C)NC(=O)[C@H](Cc1c[nH]c2ccccc12)NC(=O)[C@@H]1CCCN1C(=O)CNC(=O)[C@@H]1CCC(=O)N1)C(=O)N[C@@H](CC(=O)O)C(=O)N[C@@H](Cc1ccccc1)C(N)=O | 269 | 851 |  |  |  |  |  |  |
| CCCC[C@H](NC(=O)[C@H](Cc1c[nH]c2ccccc12)NC(=O)CNC(=O)[C@@H](CCCNC(=O)COCCOCCNC(=O)COCCOCCNC(=O)CC[C@H](NC(=O)CCCCCCCCCCCCCCCCC(=O)O)C(=O)O)NC(=O)Cc1ccc(O)cc1)C(=O)N(C)[C@H](CC(=O)O)C(=O)N(C)[C@@H](Cc1ccccc1)C(N)=O |  |  | < 6 | 5.08 | 10.22 | 9.3 |  |  |
| CCCC[C@H](NC(=O)Cc1ccc(O)cc1)C(=O)NCC(=O)N[C@@H](Cc1c[nH]c2ccccc12)C(=O)N[C@@H](CCCC)C(=O)N(C)[C@@H](CC(=O)O)C(=O)N[C@@H](Cc1ccccc1)C(N)=O (X1-[Nle]GW[Nle][NMeD]F-NH2) | 9.12 | 15.5 |  |  |  |  | 195 | 3020 |
| CCCC[C@H](NC(=O)Cc1ccc(O)cc1)C(=O)NCC(=O)N[C@@H](Cc1c[nH]c2ccccc12)C(=O)N[C@@H](CCCC)C(=O)N(C)[C@@H](CC(=O)O)C(=O)N(C)[C@@H](Cc1ccccc1)C(N)=O (X1-[Nle]GW[Nle][NMeD][NMeF]-NH2) | 8.51 | 42.7 |  |  |  |  | > 1000 | > 10000 |
| CCCC[C@H](NC(=O)Cc1ccc(O)cc1)C(=O)NCC(=O)N[C@@H](Cc1c[nH]c2ccccc12)C(=O)N[C@@H](CCCC)C(=O)N(C)[C@H](CC(=O)O)C(=O)N[C@@H](Cc1ccccc1)C(N)=O (X1-[Nle]GW[Nle][dNMeD]F-NH2) | 1.55 | 7.08 |  |  |  |  | > 1000 | > 10000 |
| CCCC[C@H](NC(=O)[C@H](Cc1c[nH]c2ccccc12)NC(=O)CNC(=O)[C@H](CC(C)C)NC(=O)[C@@H](NC(=O)[C@H](CC(=O)O)NC(=O)COCCOCCNC(=O)COCCOCCNC(=O)CC[C@H](NC(=O)CCCCCCCCCCCCCCCCC(=O)O)C(=O)O)[C@@H](C)CC)C(=O)N(C)[C@@H](CC(=O)O)C(=O)N(C)[C@@H](Cc1ccccc1)C(N)=O ({C18 diacid-γGlu-AEEA-AEEA}-DILGW[Nle][NMeD][NMeF]-NH2) |  |  | < 6 | < 5 | 9.41 | 8.37 |  |  |
| CCCC[C@H](NC(=O)[C@H](Cc1c[nH]c2ccccc12)NC(=O)CNC(=O)[C@H](CC(C)C)NC(=O)[C@H](Cc1c[nH]c2ccccc12)NC(=O)[C@H](CC(=O)O)NC(=O)COCCOCCNC(=O)COCCOCCNC(=O)CC[C@H](NC(=O)CCCCCCCCCCCCCCCCC(=O)O)C(=O)O)C(=O)N(C)[C@@H](CC(=O)O)C(=O)N(C)[C@@H](Cc1ccccc1)C(N)=O ({C18 diacid-γGlu-AEEA-AEEA}-DWLGW[Nle][NMeD][NMeF]-NH2) |  |  | < 6 | 5.13 | 9.67 | 8.57 |  |  |
| CCCC[C@H](NC(=O)[C@H](CNC(=O)CCCC(=O)O)NC(=O)[C@H](CC(=O)O)NC(=O)COCCOCCNC(=O)COCCOCCNC(=O)CC[C@H](NC(=O)CCCCCCCCCCCCCCCCC(=O)O)C(=O)O)C(=O)NCC(=O)N[C@@H](Cc1c[nH]c2ccccc12)C(=O)N[C@@H](CCCC)C(=O)N[C@@H](CC(=O)O)C(=O)N[C@@H](Cc1ccccc1)C(N)=O ({C18 diacid-γGlu-AEEA-AEEA}-D[Dap](Glutaryl)[Nle]GW[Nle]DF-NH2) | 229 | 832 |  |  |  |  | 0.38 | 5.75 |
